Data published in BindingDB's records for patent WO2025051920 (Sanofi-Aventis Deutschland, 2025).
Bridge positions count the residues as written; N and C are the ends. Square brackets hold non-standard residues; d marks the D form. Peptide text beside a SMILES is read from it. ξ: configuration not given here. Trp(1-Me) = Cn1cc(C[C@H](N)C(=O)O)c2ccccc21; 2Nal = N[C@@H](Cc1ccc2ccccc2c1)C(=O)O; ξThr(3R) = C[C@@H](O)C(N)C(=O)O; ξH = NC(Cc1c[nH]cn1)C(=O)O; Thp = NC1(C(=O)O)CCOCC1; ξD = NC(CC(=O)O)C(=O)O; ξOrn = NCCCC(N)C(=O)O; ξK = NCCCCC(N)C(=O)O

The compounds below were run against Interleukin-23 subunit alpha/receptor (UniProt Q5VWK5) (assay: ELISA assay for specific human IL-23R inhibitors).
Description: (§1) A 384-well plate was coated with 50 µl/well of human IL-23 at a final concentration of […] and incubated overnight at 4°C. The wells were washed 3 times with […] wash buffer and blocked with […] blocking buffer for 60 minutes at room temperature and washed again. 20 µl of serially diluted test peptides was added to each well and subsequently 20 µl of recombinant human IL-23R-Fc chimera at final concentration of […]. The plate was incubated for 60 minutes at room temperature. After the wells were washed, bound IL-23R-Fc was detected with goat anti-hu- IgG 1 -HRP antibody. Signals were visualized with QuantaBlu Fluorogenic Peroxidase Substrate.
Work on `COc1ccc(C[C@@H]2NC(=O)[C@H](CCCNC(=N)N)NC(=O)[C@H](CCC(N)=O)NC(=O)[C@H](Cc3cn(C)c4ccccc34)NC(=O)[C@H]([C@@H](C)O)NC(=O)[C@H](CC(N)=O)NC(=O)[C@@H](NC(C)=O)CC(=O)NCCCC(C(=O)N[C@@H](CC(N)=O)C(=O)N[C@@H](CC(N)=O)C(=O)O)NC(=O)[C@H](CC(C)C)NC(=O)[C@H](Cc3ccc4ccccc4c3)NC2=O)cc1` (stereo partly drawn) [WO2025051920, Example 37] (Ac-DNT[Trp(1-Me)]QRY(Me)[2Nal]L[ξOrn]NN-OH; lactam 1-10) yielded an IC50 of 3.57 nM. For `COc1ccc(C[C@@H]2NC(=O)[C@H](CCNC(=N)N)NC(=O)[C@H](CCC(N)=O)NC(=O)[C@H](Cc3c[nH]c4ccccc34)NC(=O)[C@H]([C@@H](C)O)NC(=O)[C@H](CC(N)=O)NC(=O)[C@H](NC(C)=O)CCCCNC(=O)C[C@@H](C(=O)N[C@@H](CC(N)=O)C(=O)N[C@@H](CC(N)=O)C(=O)O)NC(=O)C(C)(C)NC(=O)[C@H](Cc3ccc4ccccc4c3)NC2=O)cc1` [WO2025051920, Example 39], the IC50 was 1.46 nM. `COc1ccc(C[C@@H]2NC(=O)[C@H](CCNC(=N)N)NC(=O)[C@H](CCC(N)=O)NC(=O)[C@H](Cc3c[nH]c4ccccc34)NC(=O)C([C@@H](C)O)NC(=O)[C@H](CC(N)=O)NC(=O)C(N)CCCCCNC(=O)CC[C@H](C(=O)N[C@@H](CC(N)=O)C(=O)N[C@@H](CC(N)=O)C(=O)O)NC(=O)C(C)(C)NC(=O)[C@H](Cc3ccc4ccccc4c3)NC2=O)cc1` (stereo partly drawn) [WO2025051920, Example 40] showed an IC50 of 3.11 nM. For `COc1ccc(C[C@@H]2NC(=O)[C@H](CCCNC(=N)N)NC(=O)[C@H](CCC(N)=O)NC(=O)[C@H](Cc3c[nH]c4ccccc34)NC(=O)C([C@@H](C)O)NC(=O)[C@H](CC(N)=O)NC(=O)C(NC(C)=O)CCCCNC(=O)CC(C(=O)N[C@@H](CC(N)=O)C(=O)N[C@@H](CC(N)=O)C(=O)O)NC(=O)C3(CCOCC3)NC(=O)[C@H](Cc3ccc4ccccc4c3)NC2=O)cc1` (stereo partly drawn) [WO2025051920, Example 41] (Ac-[ξK]N[ξThr(3R)]WQRY(Me)[2Nal][Thp][ξD]NN-OH; lactam 1-10), the IC50 was 1.47 nM. `COc1ccc(C[C@@H]2NC(=O)[C@H](CCCNC(=N)N)NC(=O)[C@H](CCC(N)=O)NC(=O)[C@H](Cc3c[nH]c4ccccc34)NC(=O)C(Cc3c[nH]cn3)NC(=O)[C@H](CC(N)=O)NC(=O)C(NC(C)=O)CCCCNC(=O)CC(C(=O)N[C@@H](CC(N)=O)C(=O)N[C@@H](CC(N)=O)C(=O)O)NC(=O)C3(CCOCC3)NC(=O)[C@H](Cc3ccc4ccccc4c3)NC2=O)cc1` (stereo partly drawn) [WO2025051920, Example 42] (Ac-[ξK]N[ξH]WQRY(Me)[2Nal][Thp][ξD]NN-OH; lactam 1-10) showed an IC50 of 18.1 nM. With `COc1ccc(C[C@@H]2NC(=O)[C@H](C)NC(=O)[C@H](CCC(N)=O)NC(=O)[C@H](Cc3c[nH]c4ccccc34)NC(=O)C([C@@H](C)O)NC(=O)[C@H](CC(N)=O)NC(=O)C(N)CCCCCNC(=O)C[C@H](C(=O)N[C@@H](CC(N)=O)C(=O)N[C@@H](CC(N)=O)C(=O)O)NC(=O)C(C)(C)NC(=O)[C@H](Cc3ccc4ccccc4c3)NC2=O)cc1` (stereo partly drawn) [WO2025051920, Example 43] the IC50 was 1.44 nM. In the case of `COc1ccc(C[C@@H]2NC(=O)[C@H](C)NC(=O)[C@H](CCC(N)=O)NC(=O)[C@H](Cc3c[nH]c4ccccc34)NC(=O)[C@H]([C@@H](C)O)NC(=O)[C@H](CCCNC(=N)N)NC(=O)[C@H](NC(C)=O)CCCCNC(=O)C[C@@H](C(=O)N[C@@H](CC(N)=O)C(=O)N[C@@H](CC(N)=O)C(=O)O)NC(=O)C(C)(C)NC(=O)[C@H](Cc3ccc4ccccc4c3)NC2=O)cc1` [WO2025051920, Example 45], the IC50 is reported as 0.96 nM. Work on `COc1ccc(C[C@@H]2NC(=O)[C@H](C)NC(=O)[C@H](CCC(N)=O)NC(=O)[C@H](Cc3c[nH]c4ccccc34)NC(=O)[C@H](CCCNC(=N)N)NC(=O)[C@H](CC(N)=O)NC(=O)[C@H](NC(C)=O)CCCCNC(=O)C[C@@H](C(=O)N[C@@H](CC(N)=O)C(=O)N[C@@H](CC(N)=O)C(=O)O)NC(=O)C(C)(C)NC(=O)[C@H](Cc3ccc4ccccc4c3)NC2=O)cc1` [WO2025051920, Example 46] yielded an IC50 of 1.38 nM. `COc1ccc(C[C@@H]2NC(=O)[C@H](C)NC(=O)[C@H](CCC(N)=O)NC(=O)[C@H](Cc3c[nH]c4ccccc34)NC(=O)[C@H]([C@@H](C)O)NC(=O)[C@H](CC(N)=O)NC(=O)[C@H](NC(C)=O)CCCCNC(=O)C[C@@H](C(=O)N[C@@H](CC(N)=O)C(=O)N[C@@H](CC(N)=O)C(=O)O)NC(=O)[C@H](CCCNC(=N)N)NC(=O)[C@H](Cc3ccc4ccccc4c3)NC2=O)cc1` [WO2025051920, Example 47] showed an IC50 of 1.34 nM. Compound `COc1ccc(C[C@@H]2NC(=O)[C@H](C)NC(=O)[C@H](CCC(N)=O)NC(=O)[C@H](Cc3c[nH]c4ccccc34)NC(=O)[C@H]([C@@H](C)O)NC(=O)[C@H](CC(N)=O)NC(=O)[C@H](NC(C)=O)CCCCNC(=O)C[C@@H](C(=O)N[C@@H](CC(N)=O)C(=O)N[C@@H](C)C(=O)O)NC(=O)C(C)(C)NC(=O)[C@H](Cc3ccc4ccccc4c3)NC2=O)cc1` [WO2025051920, Example 48] has an IC50 of 2.06 nM. With `COc1ccc(C[C@@H]2NC(=O)[C@H](C)NC(=O)[C@H](CCC(N)=O)NC(=O)[C@H](Cc3c[nH]c4ccccc34)NC(=O)[C@H]([C@@H](C)O)NC(=O)[C@H](CC(N)=O)NC(=O)[C@H](NC(C)=O)CCCCNC(=O)C[C@@H](C(=O)N[C@@H](C)C(=O)N[C@@H](CC(N)=O)C(=O)O)NC(=O)C(C)(C)NC(=O)[C@H](Cc3ccc4ccccc4c3)NC2=O)cc1` [WO2025051920, Example 49] the IC50 was 3.13 nM. With `COc1ccc(C[C@@H]2NC(=O)[C@H](C)NC(=O)[C@H](CCC(N)=O)NC(=O)[C@H](Cc3c[nH]c4ccccc34)NC(=O)[C@H]([C@@H](C)O)NC(=O)[C@H](CC(N)=O)NC(=O)[C@H](NC(C)=O)CCCCNC(=O)C[C@@H](C(=O)N[C@@H](C)C(=O)N[C@@H](C)C(=O)O)NC(=O)C(C)(C)NC(=O)[C@H](Cc3ccc4ccccc4c3)NC2=O)cc1` [WO2025051920, Example 50] the IC50 was 8.29 nM. Compound `COc1ccc(C[C@@H]2NC(=O)[C@H](C)NC(=O)[C@H](CCC(N)=O)NC(=O)[C@H](Cc3c[nH]c4ccccc34)NC(=O)[C@H]([C@@H](C)O)NC(=O)[C@H](CC(N)=O)NC(=O)[C@H](NC(C)=O)CCCCNC(=O)C[C@@H](C(=O)N[C@@H](CC(N)=O)C(=O)N[C@@H](CC(N)=O)C(N)=O)NC(=O)C3(CCOCC3)NC(=O)[C@H](Cc3ccc4ccccc4c3)NC2=O)cc1` [WO2025051920, Example 51] (Ac-[dK]NTWQAY(Me)[2Nal][Thp]DNN-NH2; lactam 1-10) has an IC50 of 0.78 nM.

These compounds were tested against T1, Interleukin-23 subunit alpha/receptor (UniProt Q9NPF7+Q5VWK5) (assay: ELISA assay for specific human IL-23R inhibitors).
T1 sequence (Q9NPF7 whole entry): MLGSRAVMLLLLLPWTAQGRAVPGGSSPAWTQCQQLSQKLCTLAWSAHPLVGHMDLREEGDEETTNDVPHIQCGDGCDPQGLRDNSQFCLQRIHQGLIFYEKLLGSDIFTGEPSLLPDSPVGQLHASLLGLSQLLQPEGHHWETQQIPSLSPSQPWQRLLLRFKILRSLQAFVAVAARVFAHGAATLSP
T1 sequence (Q5VWK5 whole entry): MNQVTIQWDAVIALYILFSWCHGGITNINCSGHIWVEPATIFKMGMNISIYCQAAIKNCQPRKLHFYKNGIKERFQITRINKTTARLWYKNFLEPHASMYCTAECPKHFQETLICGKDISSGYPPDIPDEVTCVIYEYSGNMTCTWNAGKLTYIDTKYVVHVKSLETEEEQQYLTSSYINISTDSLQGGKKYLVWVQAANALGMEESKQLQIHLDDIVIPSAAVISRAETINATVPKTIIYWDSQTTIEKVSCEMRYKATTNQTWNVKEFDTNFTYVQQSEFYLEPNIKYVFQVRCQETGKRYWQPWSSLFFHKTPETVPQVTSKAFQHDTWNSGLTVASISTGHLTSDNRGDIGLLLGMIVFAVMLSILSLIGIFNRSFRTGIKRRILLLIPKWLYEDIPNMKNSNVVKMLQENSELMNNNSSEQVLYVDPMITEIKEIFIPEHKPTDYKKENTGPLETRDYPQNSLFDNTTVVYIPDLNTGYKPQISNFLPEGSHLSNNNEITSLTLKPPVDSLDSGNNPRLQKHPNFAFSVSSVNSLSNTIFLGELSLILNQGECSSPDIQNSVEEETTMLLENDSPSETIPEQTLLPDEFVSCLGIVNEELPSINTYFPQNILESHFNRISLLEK
Description: as §1
Compound `COc1ccc(C[C@@H]2NC(=O)[C@H](CCCNC(=N)N)NC(=O)[C@H](CCC(N)=O)NC(=O)[C@H](Cc3c[nH]c4ccccc34)NC(=O)C([C@@H](C)O)NC(=O)[C@H](CC(N)=O)NC(=O)[C@H](NC(C)=O)CCCCNC(=O)C[C@H](C(=O)N[C@@H](CC(N)=O)C(=O)N[C@@H](CC(N)=O)C(=O)O)NC(=O)C(C)(C)NC(=O)[C@H](Cc3ccc4ccccc4c3)NC2=O)cc1` (stereo partly drawn) [WO2025051920, Example 3] has an IC50 of 1.55 nM. `COc1ccc(C[C@@H]2NC(=O)[C@H](CCCNC(=N)N)NC(=O)[C@H](CCC(N)=O)NC(=O)[C@H](Cc3c[nH]c4ccccc34)NC(=O)C([C@@H](C)O)NC(=O)[C@H](CC(N)=O)NC(=O)[C@H](NC(C)=O)CCCCNC(=O)CC[C@H](C(=O)N[C@@H](CC(N)=O)C(=O)N[C@@H](CC(N)=O)C(=O)O)NC(=O)C(C)(C)NC(=O)[C@H](Cc3ccc4ccccc4c3)NC2=O)cc1` (stereo partly drawn) [WO2025051920, Example 5] gave an IC50 of 1.95 nM. `COc1ccc(C[C@@H]2NC(=O)[C@H](CCCNC(=N)N)NC(=O)[C@H](CCC(N)=O)NC(=O)[C@H](Cc3c[nH]c4ccccc34)NC(=O)C([C@@H](C)O)NC(=O)[C@H](CC(N)=O)NC(=O)C(NC(C)=O)CCCCNC(=O)C[C@H](C(=O)N[C@@H](CC(N)=O)C(=O)N[C@@H](CC(N)=O)C(=O)O)NC(=O)C(C)(C)NC(=O)[C@H](Cc3cccc4ccccc34)NC2=O)cc1` (stereo partly drawn) [WO2025051920, Example 9] gave an IC50 of 3.55 nM. `COc1ccc(C[C@@H]2NC(=O)[C@H](CCCNC(=N)N)NC(=O)[C@H](CCC(N)=O)NC(=O)[C@H](Cc3c[nH]c4ccccc34)NC(=O)C([C@@H](C)O)NC(=O)[C@H](CC(N)=O)NC(=O)C(NC(C)=O)CCCCNC(=O)C[C@H](C(=O)N[C@@H](CC(N)=O)C(=O)N[C@@H](CC(N)=O)C(=O)O)NC(=O)C(C)(C)NC(=O)[C@H](Cc3ccc4ccccc4c3)NC2=O)cc1` (stereo partly drawn) [WO2025051920, Example 15] showed an IC50 of 1.04 nM. In the case of `COc1ccc(C[C@@H]2NC(=O)[C@H](CCCNC(=N)N)NC(=O)[C@H](CCC(N)=O)NC(=O)[C@H](Cc3cn(C)c4ccccc34)NC(=O)[C@H]([C@@H](C)O)NC(=O)[C@H](CC(N)=O)NC(=O)[C@H](NC(C)=O)CCCCNC(=O)C[C@@H](C(=O)N[C@@H](CC(N)=O)C(=O)N[C@@H](CC(N)=O)C(=O)O)NC(=O)[C@H](CC(C)C)NC(=O)[C@H](Cc3cccc4ccccc34)NC2=O)cc1` [WO2025051920, Example 23], the IC50 is reported as 12 nM.
